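Dose response: 5 concentrations. Exposure: 48 h. Format: 96-well plates. Endpoint: linear interpolation; highest concentration if not reached. TGI: total growth inhibition.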
Tests used:
Test in all cases: DTP human tumour cell line panel, 48 h
A549 NSCLC = test system: A549 NSCLC
CAKI-1 renal = test system: CAKI-1 renal
CCRF-CEM leukemia = test system: CCRF-CEM leukemia
COLO 205 colon = test system: COLO 205 colon
DMS 114 small cell lung = test system: DMS 114 small cell lung
DMS 273 small cell lung = test system: DMS 273 small cell lung
EKVX NSCLC = test system: EKVX NSCLC
HCT-15 colon = test system: HCT-15 colon
HL-60(TB) leukemia = test system: HL-60(TB) leukemia
HT29 colon = test system: HT29 colon
IGROV1 ovarian = test system: IGROV1 ovarian
K-562 leukemia = test system: K-562 leukemia
KM12 colon = test system: KM12 colon
LOX IMVI melanoma = test system: LOX IMVI melanoma
M14 melanoma = test system: M14 melanoma
M19-MEL melanoma = test system: M19-MEL melanoma
MOLT-4 leukemia = test system: MOLT-4 leukemia
NCI-H226 lung = test system: NCI-H226 lung
NCI-H23 lung = test system: NCI-H23 lung
NCI-H522 lung = test system: NCI-H522 lung
OVCAR-3 ovarian = test system: OVCAR-3 ovarian
OVCAR-8 ovarian = test system: OVCAR-8 ovarian
RPMI-8226 leukemia = test system: RPMI-8226 leukemia
RXF 393 renal = test system: RXF 393 renal
SF-268 CNS = test system: SF-268 CNS
SF-295 CNS = test system: SF-295 CNS
SF-539 CNS = test system: SF-539 CNS
SK-MEL-28 melanoma = test system: SK-MEL-28 melanoma
SK-MEL-5 melanoma = test system: SK-MEL-5 melanoma
SK-OV-3 ovarian = test system: SK-OV-3 ovarian
SN12C renal = test system: SN12C renal
SNB-19 CNS = test system: SNB-19 CNS
SNB-75 CNS = test system: SNB-75 CNS
SW-620 colon = test system: SW-620 colon
TK-10 renal = test system: TK-10 renal
UACC-257 melanoma = test system: UACC-257 melanoma
UACC-62 melanoma = test system: UACC-62 melanoma
UO-31 renal = test system: UO-31 renal
XF 498 CNS = test system: XF 498 CNS
786-0 renal = test system: 786-0 renal
A498 renal = test system: A498 renal
ACHN renal = test system: ACHN renal
DLD-1 colon = test system: DLD-1 colon
HCC-2998 colon = test system: HCC-2998 colon
HCT-116 colon = test system: HCT-116 colon
HOP-18 NSCLC = test system: HOP-18 NSCLC
HOP-62 NSCLC = test system: HOP-62 NSCLC
HOP-92 NSCLC = test system: HOP-92 NSCLC
NCI-H460 lung = test system: NCI-H460 lung
OVCAR-4 ovarian = test system: OVCAR-4 ovarian
OVCAR-5 ovarian = test system: OVCAR-5 ovarian
SK-MEL-2 melanoma = test system: SK-MEL-2 melanoma
SNB-78 CNS = test system: SNB-78 CNS
U251 CNS = test system: U251 CNS
BT-549 breast = test system: BT-549 breast
DU-145 prostate = test system: DU-145 prostate
HS 578T breast = test system: HS 578T breast
MALME-3M melanoma = test system: MALME-3M melanoma
MCF7 breast = test system: MCF7 breast
MDA-MB-231 breast = test system: MDA-MB-231 breast
MDA-MB-435 = test system: MDA-MB-435
MDA-N = test system: MDA-N
NCI/ADR-RES ovarian = test system: NCI/ADR-RES ovarian
PC-3 prostate = test system: PC-3 prostate
SR leukemia = test system: SR leukemia
T-47D breast = test system: T-47D breast
KM20L2 colon = test system: KM20L2 colon
LXFL 529 NSCLC = test system: LXFL 529 NSCLC

Measured: TGI

Nc1ccc([C@H]2C(=O)N[C@H]3CCC[C@H]32)cc1
not listed: 786-0 renal | A498 renal | ACHN renal | DLD-1 colon | HCC-2998 colon | HCT-116 colon | HOP-18 NSCLC | HOP-62 NSCLC | HOP-92 NSCLC | NCI-H460 lung | OVCAR-4 ovarian | OVCAR-5 ovarian | SK-MEL-2 melanoma | SNB-78 CNS | U251 CNS | BT-549 breast | DU-145 prostate | HS 578T breast | MALME-3M melanoma | MCF7 breast | MDA-MB-231 breast | MDA-MB-435 | MDA-N | NCI/ADR-RES ovarian | PC-3 prostate | SR leukemia | T-47D breast | KM20L2 colon | LXFL 529 NSCLC
> 100 µM: all other assays above

Cc1cccc2nc3cccc(C(=O)NCCN(C)C)c3nc12
1.39 µM: HOP-62 NSCLC
10.9 µM: K-562 leukemia
84 µM: HOP-18 NSCLC
10.8 µM: HCT-116 colon
2.27 µM: HCC-2998 colon
2.61 µM: UACC-257 melanoma
3.04 µM: SNB-75 CNS
11.2 µM: SW-620 colon
3.15 µM: SN12C renal
1.56 µM: UO-31 renal
4.17 µM: DMS 273 small cell lung | NCI-H226 lung
2.19 µM: HCT-15 colon
3.25 µM: M19-MEL melanoma
2.96 µM: SK-MEL-2 melanoma
9.2 µM: SF-268 CNS
> 100 µM: CCRF-CEM leukemia | MOLT-4 leukemia
5.84 µM: TK-10 renal
1.21 µM: SF-539 CNS
16.5 µM: NCI-H460 lung
5.97 µM: OVCAR-5 ovarian
21.8 µM: DLD-1 colon
2.99 µM: RXF 393 renal
1.35 µM: A498 renal
15.8 µM: CAKI-1 renal | OVCAR-8 ovarian
3.14 µM: COLO 205 colon
4.12 µM: HOP-92 NSCLC
2.42 µM: UACC-62 melanoma
5.8 µM: ACHN renal
4.84 µM: OVCAR-4 ovarian
5.44 µM: HT29 colon
3.47 µM: NCI-H23 lung
77.3 µM: KM12 colon
1.97 µM: SK-MEL-5 melanoma
5.27 µM: SNB-19 CNS
3.13 µM: DMS 114 small cell lung
2.93 µM: SK-MEL-28 melanoma
12 µM: HL-60(TB) leukemia | SNB-78 CNS
14.3 µM: SF-295 CNS
4.61 µM: U251 CNS
2.03 µM: EKVX NSCLC
15.5 µM: IGROV1 ovarian
6.45 µM: OVCAR-3 ovarian
14.6 µM: 786-0 renal
2.36 µM: M14 melanoma
15.3 µM: A549 NSCLC
6.74 µM: SK-OV-3 ovarian
11.6 µM: LOX IMVI melanoma

COc1ccc(C(=O)Nc2ccc3oc(-c4ccccc4)nc3c2)cc1
0.838 µM: UO-31 renal
89.8 µM: SNB-75 CNS
88.5 µM: OVCAR-8 ovarian
not listed: DMS 114 small cell lung | DMS 273 small cell lung | M19-MEL melanoma | XF 498 CNS | DLD-1 colon | HOP-18 NSCLC | SNB-78 CNS | KM20L2 colon | LXFL 529 NSCLC
> 100 µM: all other assays above

C=C(Cl)Cc1c(O)c2c(c(O)c1CC(=C)Cl)C(=O)c1ccccc1C2=O
not listed: HT29 colon | KM12 colon | M19-MEL melanoma | NCI-H226 lung | NCI-H23 lung | NCI-H522 lung | OVCAR-3 ovarian | RXF 393 renal | SF-268 CNS | SF-295 CNS | SF-539 CNS | SK-MEL-28 melanoma | SNB-19 CNS | SNB-75 CNS | UACC-257 melanoma | UO-31 renal | A498 renal | HCT-116 colon | HOP-18 NSCLC | HOP-92 NSCLC | NCI-H460 lung | SNB-78 CNS | BT-549 breast | DU-145 prostate | HS 578T breast | MCF7 breast | MDA-MB-231 breast | MDA-MB-435 | MDA-N | NCI/ADR-RES ovarian | PC-3 prostate | T-47D breast
> 100 µM: all other assays above

COc1ccc(N2C(=O)CC(c3c[nH]c4ncccc34)C2=O)cc1 (centres undefined)
> 31.6 µM: PC-3 prostate
47 µM: OVCAR-4 ovarian
24.2 µM: NCI-H522 lung
45.8 µM: HCT-116 colon
16.8 µM: CCRF-CEM leukemia
44.9 µM: M14 melanoma
24.9 µM: K-562 leukemia
> 58.4 µM: NCI-H23 lung
40.7 µM: SW-620 colon
35.2 µM: SN12C renal
> 76.9 µM: MCF7 breast
> 41 µM: MOLT-4 leukemia
> 20 µM: SR leukemia
37.2 µM: BT-549 breast | CAKI-1 renal
36.2 µM: OVCAR-3 ovarian
59.3 µM: HCT-15 colon
44.6 µM: IGROV1 ovarian
36.5 µM: COLO 205 colon
40.3 µM: MDA-MB-231 breast
> 96.4 µM: UACC-62 melanoma
19.4 µM: MDA-MB-435
49.7 µM: 786-0 renal
19.5 µM: TK-10 renal
43.6 µM: ACHN renal
> 65.3 µM: SF-539 CNS
40.5 µM: HT29 colon | MALME-3M melanoma
> 58.3 µM: SK-MEL-28 melanoma
36 µM: HOP-92 NSCLC
50.4 µM: T-47D breast
> 37.4 µM: HL-60(TB) leukemia
20.1 µM: MDA-N
38.5 µM: UACC-257 melanoma
> 79.1 µM: NCI/ADR-RES ovarian
42.5 µM: RXF 393 renal
> 75.6 µM: EKVX NSCLC
42.4 µM: OVCAR-8 ovarian
not listed: DMS 114 small cell lung | DMS 273 small cell lung | M19-MEL melanoma | XF 498 CNS | DLD-1 colon | HOP-18 NSCLC | SNB-78 CNS | KM20L2 colon | LXFL 529 NSCLC
> 100 µM: all other assays above

S=c1[nH]nc(NNc2ccccc2)n1Nc1ccccc1
> 91.1 µM: SR leukemia
42 µM: CCRF-CEM leukemia
57.2 µM: HL-60(TB) leukemia
> 73.6 µM: SF-539 CNS
> 59.6 µM: T-47D breast
> 83.9 µM: U251 CNS
32.5 µM: LOX IMVI melanoma
> 37.6 µM: COLO 205 colon
> 79.9 µM: HOP-92 NSCLC
> 54.6 µM: NCI-H460 lung
> 69.3 µM: UACC-257 melanoma
> 96.6 µM: NCI-H226 lung
not listed: DMS 114 small cell lung | DMS 273 small cell lung | M19-MEL melanoma | MOLT-4 leukemia | XF 498 CNS | DLD-1 colon | HOP-18 NSCLC | SNB-78 CNS | KM20L2 colon | LXFL 529 NSCLC
> 100 µM: all other assays above

CCOC(=O)C(=O)C(CCC(=O)c1ccc2ccccc2c1O)C(=O)OCC (centres undefined)
not listed: DMS 114 small cell lung | DMS 273 small cell lung | M19-MEL melanoma | TK-10 renal | XF 498 CNS | DLD-1 colon | HOP-18 NSCLC | HOP-62 NSCLC | SNB-78 CNS | KM20L2 colon | LXFL 529 NSCLC
> 100 µM: all other assays above

Source: PubChem BioAssay (NCI)
